The source of these data is patent publication US7892549B2, “Treatment with anti-ErbB2 antibodies” (Genentech, Inc., priority 1997, dated 2011).

The data set deals with metastatic breast cancer with overexpression of the ErbB2 (HER2) oncogene. The data set is described as follows: Randomized clinical study of chemotherapy with or without HERCEPTIN in patients. It is filed as in vivo, human.

Method: Beginning on day 7, patients received weekly administration of 2 mg/kg antibody (i.v.) over a 90-minute period.
The patients received one of two chemotherapy regiments for a minimum of six cycles, provided their disease was not progressing: a) cyclophosphamide and doxorubicin or epirubicin (AC), if patients have not received anthracycline therapy in the adjuvant setting, or b) paclitaxel (T, TAXOL®), if patients have received any anthracycline therapy in the adjuvant setting. […] Subsequent doses of the antibody were given immediately before chemotherapy administration, if the initial dose of the antibody was well tolerated. If the first dose of the antibody was not well tolerated, subsequent infusions continued to precede chemotherapy administration by 24 hours. Patients were permitted to continue receiving chemotherapy beyond six cycles if, in the opinion of the treating physician, they were continuing to receive treatment benefit.
Cyclophosphamide (600 mg/m^2) was given either by iv push over a minimum period of 3 minutes or by infusion over a maximum period of 2 hours. […]
Time to disease progression (TTP) was calculated from the beginning of therapy to progression. Confidence limits for response rates were calculated using the exact method for a single proportion.

Turning to `CC(=O)O[C@H]1C(=O)[C@@]2(C)[C@H]([C@H](OC(=O)c3ccccc3)[C@]3(O)C[C@H](OC(=O)[C@H](O)[C@@H](NC(=O)c4ccccc4)c4ccccc4)C(C)=C1C3(C)C)[C@]1(OC(C)=O)CO[C@@H]1C[C@@H]2O` [T, paclitaxel], the “syndrome of myocardial dysfunction similar to that observed with anthracyclines” value (Grade ¾) came to 0%. In addition, the “AE(%), overall severe adverse events” value (median follow-up 10.5 months) is listed as 59%.
